For orientation: IC50 means the point on the concentration scale where inhibition reaches its midpoint.

The text below walks through data of ChEMBL document CHEMBL5154800, “Identification of N, C-capped di- and tripeptides as selective immunoproteasome inhibitors” (Eur J Med Chem, 2022).

One assay relates to DOHH-2. As to the kind of experiment: Antiproliferative activity against human DOHH-2 cells assessed as growth inhibition at 0.2 uM measured after 72 hrs by MTT assay. The format is functional. The settings on record: read-out: GI.
The next assay has as its system Pfeiffer. The experiment in a line: Antiproliferative activity against human Pfeiffer cells assessed as growth inhibition at 0.2 uM measured after 72 hrs by MTT assay. The format is functional. The settings on record: read-out: GI.
For assay [1], the system named is HCT-116. The experiment in a line: Antiproliferative activity against human HCT-116 cells assessed as growth inhibition at 0.2 uM measured after 72 hrs by MTT assay. The format is functional. The settings on record: read-out: GI. On the technique in general: Formazan colour is commonly taken as a measure of viable cells.
In another assay the test system is HT-29. As to the kind of experiment: Antiproliferative activity against human HT-29 cells assessed as growth inhibition at 0.2 uM measured after 72 hrs by MTT assay. The class given is functional. The settings on record: read-out: GI.
The next assay concerns MCF7. The experiment in a line: Antiproliferative activity against human MCF7 cells assessed as growth inhibition at 0.2 uM measured after 72 hrs by MTT assay. The format is functional. Conditions: read-out: GI.
Assay [2] relates to HCT-116. The experiment in a line: Antiproliferative activity against human HCT-116 cells assessed as growth inhibition measured after 72 hrs by CCK-8 assay. The settings on record: HCT-116, 72 h. The class given is functional, cell-based.
In assay [3] the test system is THP-1. As to the kind of experiment: Antiinflammatory activity against LPS-stimulated human THP-1 cells assessed inhibition of TNF-alpha release at 40 uM measured by ELISA. The class given is functional, cell-based. (ELISA stands for enzyme-linked immunosorbent assay.)
Assay [4] relates to THP-1. The experiment in a line: Antiinflammatory activity against LPS-stimulated human THP-1 cells assessed inhibition of IL-6 release at 40 uM measured by ELISA. The format is functional, cell-based.
Assay [5] addresses T1, Proteasome Macropain subunit MB1 (Homo sapiens, UniProt P28074).
T1 sequence (P28074 whole entry): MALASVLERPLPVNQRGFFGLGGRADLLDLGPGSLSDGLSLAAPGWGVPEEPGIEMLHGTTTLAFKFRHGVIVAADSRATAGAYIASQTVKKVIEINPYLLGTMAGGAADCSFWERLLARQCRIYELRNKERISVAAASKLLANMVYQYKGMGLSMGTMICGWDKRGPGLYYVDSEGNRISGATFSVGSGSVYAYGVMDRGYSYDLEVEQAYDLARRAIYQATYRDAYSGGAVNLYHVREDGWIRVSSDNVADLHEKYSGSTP
The experiment in a line: Inhibition of 20S proteasome subunit beta-5c (unknown origin) using Ac-WLA-AMC as substrate and measured after 30 mins.

For assay [6], the target named is T2, Proteasome subunit beta type-8 (Homo sapiens, UniProt P28062).
T2 sequence (P28062 whole entry): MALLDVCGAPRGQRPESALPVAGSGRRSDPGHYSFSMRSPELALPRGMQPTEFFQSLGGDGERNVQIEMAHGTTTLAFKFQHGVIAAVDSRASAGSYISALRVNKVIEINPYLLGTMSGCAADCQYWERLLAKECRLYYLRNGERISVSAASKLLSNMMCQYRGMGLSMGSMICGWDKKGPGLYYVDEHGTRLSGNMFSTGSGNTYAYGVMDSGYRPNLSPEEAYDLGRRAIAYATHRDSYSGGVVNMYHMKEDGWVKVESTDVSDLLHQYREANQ
The experiment in a line: Inhibition of 20S proteasome subunit beta-5i (unknown origin) using Ac-ANW-AMC as substrate and measured after 30 mins.

Assay [7] is described as follows: Selectivity ratio of IC50 for inhibition of 20S proteasome beta 5c subunit (unknown origin) to IC50 for inhibition of 20S proteasome subunit beta-5i.
Assay [8] deals with T3, Proteasome subunit beta type-9 (Homo sapiens, UniProt P28065).
T3 sequence (P28065 whole entry): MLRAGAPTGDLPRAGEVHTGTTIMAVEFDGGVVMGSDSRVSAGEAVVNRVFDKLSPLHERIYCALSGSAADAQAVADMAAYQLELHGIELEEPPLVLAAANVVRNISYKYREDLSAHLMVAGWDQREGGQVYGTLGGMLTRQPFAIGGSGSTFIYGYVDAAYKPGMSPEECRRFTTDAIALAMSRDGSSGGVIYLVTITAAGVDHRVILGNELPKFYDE
As to the kind of experiment: Inhibition of 20S proteasome subunit beta-1i (unknown origin) using Ac-PAL-AMC as substrate and measured after 30 mins.

Assay [9] deals with T4, Proteasome subunit beta type-10 (Homo sapiens, UniProt P40306).
T4 sequence (P40306 whole entry): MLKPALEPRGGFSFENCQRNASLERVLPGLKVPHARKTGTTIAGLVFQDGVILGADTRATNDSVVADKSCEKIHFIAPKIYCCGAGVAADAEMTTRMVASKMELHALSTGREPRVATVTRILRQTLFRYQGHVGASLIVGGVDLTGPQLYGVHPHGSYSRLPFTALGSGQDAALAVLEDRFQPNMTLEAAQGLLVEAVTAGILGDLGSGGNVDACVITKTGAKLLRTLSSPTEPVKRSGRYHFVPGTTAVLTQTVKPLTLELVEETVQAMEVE
The experiment in a line: Inhibition of 20S proteasome subunit beta-2i (unknown origin) using Ac-KQL-AMC as substrate and measured after 30 mins.

Calls of active or inactive are those of the source. The calls are words filed in the database; no cut-off is given here.

For `COc1ccc(C[C@H](NC(=O)[C@H](C)NC(=O)CN2CCOCC2)C(=O)NC(Cc2ccccc2)C(=O)[C@@]2(C)CO2)cc1` (stereo partly specified), the inhibition of growth at 0.2 µM is 56% in the assay on DOHH-2; 36% with Pfeiffer; 75% with HCT-116 [1]; 54% in the assay with HT-29; less than 20% in the assay on MCF7. Also, the IC50 with HCT-116 [2] was determined as 730 nM. The result in the assay with THP-1 [3] and with THP-1 [4] was Active.
With `Cc1ccc(CNC(=O)[C@H](Cc2ccc([N+](=O)[O-])cc2)NC(=O)[C@H](CCC(=O)NC(C)(C)C)NC(=O)CCNC(=O)CCl)cc1`, the IC50 is 84.1 nM in assay [5] and 800 nM in the assay with HCT-116 [2]. For the same compound, the inhibition of growth at 0.2 µM was less than 20% with DOHH-2; less than 20% in the assay on Pfeiffer; 58% with HCT-116 [1]; less than 20% in the assay with HT-29; less than 20% in the assay with MCF7.
As for `Cc1ccc(CNC(=O)[C@H](Cc2ccc3ccccc3c2)NC(=O)[C@H](CCC(=O)NC(C)(C)C)NC(=O)CCNC(=O)CCl)cc1`, the inhibition of growth at 0.2 µM in the assay with DOHH-2 is less than 20%; with Pfeiffer, 28%; in the assay with HCT-116 [1] it was 60%; in the assay with HT-29 it was less than 20%; in the assay with MCF7 it was less than 20%. In the assay with HCT-116 [2], the IC50 stood at 1700 nM. In addition, the result in the assay with THP-1 [3] and with THP-1 [4] was Active.
`Cc1ccc(CNC(=O)[C@H](Cc2ccccc2)NC(=O)[C@H](CCC(=O)NC(C)(C)C)NC(=O)[C@H](CNC(=O)CCl)NC(=O)c2cc(C)on2)cc1`: the inhibition of growth at 0.2 µM in the assay on DOHH-2 is less than 20%; with Pfeiffer, 30%; in the assay on HCT-116 [1], 83%; with HT-29 it was 54%; with MCF7, less than 20%. Moreover, the IC50 with HCT-116 [2] came to 460 nM.
For `Cc1ccc(CNC(=O)[C@H](Cc2ccccc2)NC(=O)[C@H](CCC(=O)NC(C)(C)C)NC(=O)[C@H](CNC(=O)CCl)NC(=O)CCCc2ccccc2)cc1`, the inhibition of growth at 0.2 µM with DOHH-2 was 25%; with Pfeiffer it was 23%; with HCT-116 [1] it was 82%; in the assay on HT-29, 53%; in the assay on MCF7 it was less than 20%. In the assay with HCT-116 [2], the IC50 is 880 nM.
Consider `Cc1ccc(CNC(=O)[C@H](Cc2ccccc2)NC(=O)[C@H](CCC(=O)NC(C)(C)C)NC(=O)[C@H](CNC(=O)CCl)NS(=O)(=O)c2ccc(C)cc2)cc1`, for which the inhibition of growth at 0.2 µM was 34% with DOHH-2; 26% in the assay with Pfeiffer; 85% with HCT-116 [1]; 59% in the assay on HT-29; less than 20% with MCF7. Also, in the assay with HCT-116 [2], the IC50 was 1090 nM.
As to `CC(C)(C)NC(=O)CC[C@H](NC(=O)CCNC(=O)CCl)C(=O)N[C@@H](Cc1ccccc1)C(=O)NCc1cccc2ccccc12`, the IC50 in assay [6] is 3.82 nM; in assay [8] it was more than 40 µM; in assay [9] it was more than 40 µM. Besides, the Ratio IC50 in assay [7] was found to be 113. For the same compound, the inhibition of growth at 0.2 µM in the assay on DOHH-2 is less than 20%; in the assay on Pfeiffer it was less than 20%; in the assay with HCT-116 [1], 21%; in the assay with HT-29 it was less than 20%; with MCF7, less than 20%. Also, the outcome in the assay on THP-1 [3] and with THP-1 [4] was Active.
On to `Cc1ccc(CNC(=O)[C@H](Cc2ccccc2)NC(=O)[C@H](CCC(=O)NC(C)(C)C)NC(=O)CCNC(=O)/C(C#N)=C/c2ccco2)cc1`, for which the IC50 in assay [6] is 2.92 nM; with HCT-116 [2], 160 nM; in assay [8], more than 40 µM; in assay [9], more than 40 µM. Moreover, the inhibition of growth at 0.2 µM was 23% in the assay with DOHH-2; less than 20% in the assay on Pfeiffer; 76% in the assay on HCT-116 [1]; 48% with HT-29; less than 20% with MCF7.
Consider `CC(C)(C)NC(=O)CC[C@H](NC(=O)CCNC(=O)CCl)C(=O)N[C@@H](Cc1ccc2ccccc2c1)C(=O)NCc1cccc2ccccc12`, for which the Ratio IC50 in assay [7] stood at 535. In addition, the inhibition of growth at 0.2 µM is less than 20% in the assay with DOHH-2; less than 20% in the assay on Pfeiffer; 21% with HCT-116 [1]; less than 20% in the assay with HT-29; 25% in the assay with MCF7. The outcome with THP-1 [3] and in the assay on THP-1 [4] was Active. Besides, the IC50 in assay [8] and in assay [9] was more than 40 µM each time.
